Data taken from article PMC6585621 (Clinical Pharmacology and Therapeutics, 2018).
Read-outs that look alike come from different tables or passages of the source. Each block holds one compound with its values, some of them ahead of it.

Key:
[1] = cited from earlier work
[2] = Pharmacokinetics of ritonavir with and without clopidogrel; format: in vivo, human
[3] = Pharmacokinetics of clopidogrel and its metabolites with and without ritonavir; format: in vivo, human; settings: for C max / AUC0‐4h / AUC0‐∞ / t ½ / t max / AUC / half-life: after clopidogrel 300 mg oral; for C max / AUC0‐4h / AUC0‐∞ / t ½ / Clopidogrel active metabolite: clopidogrel AUC0‐∞ ratio / AUC / half-life: geometric mean (geometric CV); for t max: median (range); for half-life: t ½
[4] = cited from earlier work; remark: listed apart in the source
platelet aggregation = settings: clopidogrel 300 mg, arithmetic mean (SD)
[5] = tested on: carboxylesterase 1 (CES1); settings: cited from earlier work
[6] = in humans; cited from earlier work
[7] = clopidogrel and ritonavir phase

Structure (SMILES): CCOc1cc(CC(=O)N[C@@H](CC(C)C)c2ccccc2N2CCCCC2)ccc1C(=O)O [repaglinide]
increase of AUC of CYP2C8 substrate by gemfibrozil [1]: ~8 fold

Structure (SMILES): CC(C)(O)c1ccccc1CC[C@@H](SCC1(CC(=O)O)CC1)c1cccc(/C=C/c2ccc3ccc(Cl)cc3n2)c1 [montelukast]
increase of AUC of CYP2C8 substrate by gemfibrozil [1]: ~4.5 fold

Structure (SMILES): O=C(O)C[C@H](O)C[C@H](O)/C=C/c1c(C2CC2)nc2ccccc2c1-c1ccc(F)cc1 [pitavastatin]
effect of clopidogrel on pharmacokinetics [6]: not affected

Now from value to compound, other results behind:

t max ([2]; clopidogrel and ritonavir phase, median (range)): 3.0 h
t ½ during coadministration of clopidogrel as % of that in the ritonavir phase ([2]; geometric mean): 112%
t max ([2]; human, plasma, oral): 1.75 h
Structure (SMILES): CC(C)c1nc(CN(C)C(=O)N[C@H](C(=O)N[C@@H](Cc2ccccc2)C[C@H](O)[C@H](Cc2ccccc2)NC(=O)OCc2cncs2)C(C)C)cs1 [Ritonavir, ritonavir]

C max ([3]; clopidogrel and ritonavir phase (ritonavir 100 mg twice daily)): 6.77 (140) ng/mL
AUC0‐4h [3, 7]: 9.16 (150) ng·h/mL
AUC0‐∞ [3, 7]: 14.9 (170) ng·h/mL
t ½ [3, 7]: 0.89 (90) h
t max [3, 7]: 0.92 (0.92–1.5) h
AUC0‐4h ([3]; clopidogrel phase): 18.7 (77) ng·h/mL
AUC0‐∞ ([3]; clopidogrel phase): 19.3 (79) ng·h/mL
C max ([3]; clopidogrel phase): 13.0 (72) ng/mL
t ½ ([3]; clopidogrel phase): 1.05 (58) h
t max ([3]; clopidogrel phase): 0.92 (0.92–1.5) h
Clopidogrel active metabolite: clopidogrel AUC0‐∞ ratio [3, 7]: 1.83 (200)
Clopidogrel active metabolite: clopidogrel AUC0‐∞ ratio ([3]; clopidogrel phase): 1.79 (110)
AUC0‐4h in clopidogrel–ritonavir phase as % of that in the clopidogrel phase ([3]; geometric mean): 49%
C max in clopidogrel–ritonavir phase as % of that in the clopidogrel phase ([3]; geometric mean): 52%
AUC0‐4h, clopidogrel and ritonavir phase to clopidogrel phase ratio ([3]; geometric mean ratio (90% CI)): 0.49 (0.39–0.61); P = 0.0001
AUC0‐∞, clopidogrel and ritonavir phase to clopidogrel phase ratio ([3]; geometric mean ratio (90% CI)): 0.77 (0.59–1.00)
C max, clopidogrel and ritonavir phase to clopidogrel phase ratio ([3]; geometric mean ratio (90% CI)): 0.52 (0.41–0.65); P = 0.0003
Clopidogrel active metabolite: clopidogrel AUC0‐∞ ratio, clopidogrel and ritonavir phase to clopidogrel phase ratio ([3]; geometric mean ratio (90% CI)): 1.03 (0.53–1.97)
t ½, clopidogrel and ritonavir phase to clopidogrel phase ratio ([3]; geometric mean ratio (90% CI)): 0.85 (0.66–1.08)
Structure (SMILES): COC(=O)[C@H](c1ccccc1Cl)N1CC[C@@H](S)/C(=C\C(=O)O)C1 [Clopidogrel active metabolite]
decrease of AUC by ketoconazole [4]: 22–29%

AUC0‐4h, clopidogrel and ritonavir phase to clopidogrel phase ratio ([3]; geometric mean ratio (90% CI)): 0.75 (0.40–1.44)
AUC0‐∞, clopidogrel and ritonavir phase to clopidogrel phase ratio ([3]; geometric mean ratio (90% CI)): 0.75 (0.39–1.43)
C max, clopidogrel and ritonavir phase to clopidogrel phase ratio ([3]; geometric mean ratio (90% CI)): 0.79 (0.40–1.57)
t ½, clopidogrel and ritonavir phase to clopidogrel phase ratio ([3]; geometric mean ratio (90% CI)): 0.89 (0.72–1.11)
Cmax ([3]; human, plasma, po, 300 mg): 4.49 ng/mL
AUC ([3]; human, plasma, po, 300 mg, AUC0‐4h, clopidogrel and ritonavir phase): 6.44 ng·h/mL
AUC ([3]; human, plasma, po, 300 mg, AUC0‐4h, clopidogrel phase): 8.53 ng·h/mL
AUC ([3]; human, plasma, po, 300 mg, AUC0‐∞, clopidogrel and ritonavir phase): 8.14 ng·h/mL
AUC ([3]; human, plasma, po, 300 mg, AUC0‐∞, clopidogrel phase): 10.8 ng·h/mL
half-life ([3]; human, plasma, po, 300 mg, clopidogrel and ritonavir phase): 1.77 h
half-life ([3]; human, plasma, po, 300 mg, clopidogrel phase): 1.98 h
Structure (SMILES): COC(=O)[C@H](c1ccccc1Cl)N1CCc2sccc2C1 [Clopidogrel, clopidogrel, reference compound]
Inhibition of platelet aggregation, average inhibition at 0‐24 h (platelet aggregation; [7]): 31 (28) %
Inhibition of platelet aggregation, maximal inhibition (platelet aggregation; [7]): 40 (29) %
Inhibition of platelet aggregation, average inhibition at 0‐24 h (platelet aggregation; clopidogrel phase): 51 (24) %
Inhibition of platelet aggregation, maximal inhibition (platelet aggregation; clopidogrel phase): 60 (23) %
fraction hydrolyzed by CES1 to inactive carboxylic acid metabolite [5]: About 90%
